One test has as its system NF-kB. Briefly: MQ on translocation of NF-kB (p65) to the nucleus in HCECs, western blot. The test is classed as cell-based, human. The settings on record: MQ 50 μM overnight, FLA 100 ng/ml 3 hours. The method, then: Materials and Methods: Human corneal epithelial cells were grown in culture. Cells were then plated in DMEM. The cells cultures were then kept at 37° C. with 5% CO2. Once ready, HCECs were then incubated with MQ at a concentration of 50 uM overnight. […] Samples were treated for 3 hours and then samples were collected. Nuclear and cytoplasmic fractions were obtained using 0.1% NP-40 buffer. Cells were pelleted and the supernatant was discarded. Cells were then treated with 25 μl of NP-40 lysis buffer. Upon addition of the buffer cells were centrifuged for 10 minutes at 3000 rpm at 4° C. The supernatant was collected which is the cytoplasmic fraction and the remaining pellet was the nuclear fraction. The pellet was then washed three times to remove any remaining cytoplasmic fraction.
Both fractions were then treated with 2x SDS loading buffer and the protein was denatured at 100° C. and placed on ice. Proteins were run on a gel at […] until the dye front neared the bottom of the gel. Protein was then dry transferred to a membrane. The membrane was blocked in 5% blocking buffer overnight. The following day the membrane was washed three times with PBS-T and anti-mouse p65-NF-kB rabbit polyclonal antibody was added. […]
The inhibitory effects on the translocation of NF-kB from the cytoplasm to the nucleus following stimulation with FLA was also assessed. […]

Test [1] has as its system Human corneal epithelial cells. The test can be described thus: NC on IL-6 release in HCECs. The settings on record: 50 μM NC 18 hours, 6-8 hours. In kind it is cell-based. The method, then:
FIG. 30. NC on IL-6 Release in HCECs. Human corneal epithelial cells were plated at a uniform density of 0.2×10^6 cells/mL in 24 well plates. These cells were allowed to adhere for 6-8 hours. They were then treated 18 hours with 50tM of metabolite NC before being stimulated with 1 tg/mL of PA-Flagellin or 50 tg/mL Poly I:C. Supernatant was collected between 6-8 hours after addition of TLR agonist and centrifuged at 1250 rpms for 5 minutes to remove any debris. IL-6 in the supernatant was then quantified using a sandwich ELISA for human IL-6 with a standard of known IL-6 concentration.
Human corneal epithelial cells (HCECs) are a cell type used for models of ocular inflammation. To determine the specificity of HCEC TLR signaling, HCECs were stimulated with various TLR agonists. In this experimental model, HCECs only release IL-6 in response to TLR3 and TLR5 agonists (Poly I:C and Fla, respectively) in vitro (FIG. 29). Therefore, only Poly I:C and Fla were used for HCEC stimulation in subsequent experiments.
To determine if NC can mitigate TLR-related inflammation, HCECs were plated at a uniform density, incubated with 50 μM metabolite NC for 18 hours, and stimulated with flagellin or Poly I:C. After 6-8 hours, supernatant was collected and IL-6 was quantified. […] FIG. 30.

Another test concerns NLRP3 inflammasome. Briefly: JE on IL-1β production and caspase-1 activation by BMDMs upon NLRP3 activation. In kind it is cell-based, mouse. The settings on record: for IL-1β production upon NLRP3 activation with ATP: 5 mM ATP. As for the experimental part:
(§1) FIG. 19. The Effect of JE on IL-1β Production by BMDMs Upon NLRP3 Activation. Macrophages were pretreated with the metabolite JE at a concentration of 50 μM overnight at 37° C., 5% CO2. The following day, macrophages were primed with LPS at 500 ng/ml for 4 hours and then activated by ATP for 1 hour at 37° C., 5% CO2. Another approach is to prime the cells with 10 ng/ml LPS for 4 hours, then pretreat with JE overnight. The following day, macrophages were activated with 5 mM ATP for an hour at 37° C., 5% CO2. Supernatants were collected, and […] was measured using ELISA. Data are presented as mean±SEM (n=6). **p<0.01. One of three experiments is shown.
as §1, with “20.” for “19.”
FIG. 21. The Impact of JE on Caspase-1 Activation After Priming the Cells with LPS. BMDMs were cultured and seeded as described before. Macrophages were first primed with LPS for 4 hours at 37° C. with 5% CO2. After that, they were treated with the metabolite JE for 1 (LPS1ATP), 2 (LPS2ATP), and 3 (LPS3ATP) hours. Then, the cells were exposed to media containing 5 mM ATP for 1 hour at 37° C. with 5% CO2. Finally, the supernatants were collected and the level of IL-1β was measured using ELISA. Data are presented as mean±SEM (n=6). *p<0.05; ***p<0.001. One of two experiments is shown.
Next, we explored how JE inhibits caspase-1 activation as well as IL-1β production. As stated above, NLRP3 activation adopts a two-step dogma: priming with LPS, followed by activation by ATP, nigericin, or MSU crystals. […] To achieve that, JE was used to pretreat BMDMs overnight at 37° C., 5% CO2; the next day, macrophages were primed with LPS for 4 hours, then stimulated with ATP for an hour. I collected the supernatant and measured IL-1β by ELISA.
In an attempt to determine whether JE inhibits the priming or the activation step, BMDMs were stimulated with LPS, then the metabolite JE was used to treat the cells overnight at 37° C., 5% CO2. The following day, macrophages were stimulated with ATP for an hour, then, supernatant was collected to measure IL-1β by ELISA. PBS was used as a control to JE in this experiment. In both conditions, I did a western blot on caspase-1 to elucidate whether JE inhibits caspase-1 activation or not.
It was also evident by the absence of active caspase-1 in the supernatant on western blot analysis (data not shown). To determine whether JE inhibits the activation signal, instead of pretreating the macrophages with JE overnight. BMDMs were treated with the metabolite JE for 1 hour, 2 hours, and 3 hours after priming with LPS for 4 hours; then 5 mM of ATP was.

Entries after “also recorded” stand apart in the source; their conditions may differ.

Consider Prednicarbate [MQ], for which, in the test with NF-kB, the “translocation of NF-kB to the nucleus” value is listed as “inhibited”.

In the case of `CCCCCCCCCCCCCCCC(=O)N[C@@H](C(=O)O)[C@H](C)O` [NC, N-Palmitoyl-D-Threonine], the “release of IL-6 in response to Poly I:C” value in test [1] (Poly I:C) was “does not significantly reduce; also recorded: modestly reduced”. Also, in test [1] (flagellin), the “release of IL-6 in response to Fla” value is given as “does not significantly reduce”.

Take `CC(=O)O[C@@H]1CC[C@H]2[C@H]3CC[C@H]4CC(F)(F)CC[C@]4(C)[C@H]3CC[C@]12C` [JE, 3,3-Difluoro-5-alpha-androstan-17-beta-yl acetate]: the “IL-β upon activation of NLRP3 inflammasome” value in the test with NLRP3 inflammasome (JE 50 μM pretreatment overnight, LPS priming 4 hours, ATP 1 hour) is “completely abolished”. Besides, the results for the “IL-1β production upon NLRP3 activation with ATP” value in the test on NLRP3 inflammasome (JE for 1 hour after priming with LPS 4 hours), in the test with NLRP3 inflammasome (JE for 2 hours after priming with LPS 4 hours) and with NLRP3 inflammasome (JE for 3 hours after priming with LPS 4 hours) were “did not have the same effect”, “did not have the same effect” and “significantly decrease”, respectively. Also, the “active caspase-1 in the supernatant (western blot)” value with NLRP3 inflammasome (JE pretreatment, LPS priming, ATP) is “absence”.
